According to EP4635513A1, “NEAR-INFRARED PHOTOSENSITIZER THAT CAN BE ACTIVATED IN SLIGHTLY ACIDIC TUMOR ENVIRONMENT AND PREPARATION METHOD THEREFOR AND USE THEREOF” (Shenzhen University, priority 2024, dated 2025):

How the values were obtained:
[1] = Singlet oxygen detection by ESR/EPR spectroscopy with TEMP as trapping agent; type: physicochemical; conditions: near-infrared irradiation
Method: Singlet oxygen generation and characterization were further analyzed by electron spin resonance (ESR) spectroscopy. Using photosensitizers LET-H' and LET-I' as examples, 2,2,6,6-tetramethyl-4-piperidone hydrochloride (TEMP) was employed as the singlet oxygen trapping agent. Two groups of photosensitizer stock solutions were prepared and diluted with TEMP added, one group remained untreated, while another was irradiated with the near-infrared laser, and a blank control group was also prepared for comparison.

[2] = Singlet oxygen quantum yield with ICG as reference standard; type: physicochemical; conditions: DPBF in dichloromethane, near-infrared laser
Method: Using indocyanine green (ICG) as a reference standard, the singlet oxygen quantum yields of photosensitizers LET-R (R = H, Cl, Br, I) were determined. At first, an appropriate volume of freshly prepared DPBF solution was added to dichloromethane to adjust the absorbance at 415 nm to approximately 1.0, followed by addition of test solution (photosensitizer or ICG) at optimized concentration. Samples were then irradiated with a near-infrared laser, and time-dependent ultraviolet-visible spectral changes were recorded. The singlet oxygen quantum yield was calculated using Formula (1): ΦΔ = […] [formula]
ΦΔ represents the singlet oxygen quantum yield of test molecules, and ΦICG represents the singlet oxygen quantum yield of ICG. "ps" represents the photosensitizer under investigation, while k represents a slope of DPBF absorbance decay at 415 nm over time. And correction factor F is calculated using Formula (2): […] [formula]
In Formula (2), OD represents the absorbance of solutions at a laser wavelength.

[3] = test system: murine mammary carcinoma cells (4T1 cell line); assay: Photodynamic efficacy at cellular level, cell viability assay; type: cell-based; conditions: Mus musculus, light or radiation study, 4T1 cells, 6 hours incubation, 808 nm (0.2 W/cm^2) laser, 20 minutes irradiation
Method: The photodynamic therapeutic efficacy was evaluated using standardized […] assay protocols to assess the effects of photosensitizer molecules on viability of murine mammary carcinoma cells (4T1 cell line).
Cell culture was performed using Dulbecco's Modified Eagle Medium (DMEM) high glucose supplemented with 10% fetal bovine serum (FBS) and 1% antibiotic-antimycotic solution (penicillin-streptomycin mixture), and maintained in a humidified incubator at 37 °C with 5% CO2. Experimental procedures were initiated when cell density reached 80% confluency. Using photosensitizers LET-H and LET-I as examples, 4T1 cells were seeded in 96-well plates (100 µL, 5×10^3 cells/well) and cultured for 24 hours, then original medium was discarded and replaced with medium containing photosensitizer molecules at a concentration of 20 µM. After 6 hours of incubation, the medium in each well was replaced with fresh medium, and irradiated with an 808 nm (0.2 W/cm^2) laser for different times (0, 5, 10 and 20 min), and placed back in cell culture incubator for continued incubation. After irradiation, the plates were returned to the incubator for continued culture. After 12 hours of incubation, 10 µL of CCK-8 solution was added to each well, and the plates were incubated for one additional hour. Absorbance was subsequently measured at 450 nm using a microplate reader.

[4] = pH-response fluorescence spectra; type: physicochemical; conditions: pH dependence; for fluorescence intensity in the visible light region: excitation 420 nm, PBS buffer with 1% DMSO; for fluorescence emission intensity in the near-infrared region: excitation 760 nm (LET-H, LET-I), 660 nm (LET-Hcy-N)
Method: The photosensitizers prepared in the Embodiments 1-8 were individually dissolved in dimethyl sulfoxide to prepare 10 mM photosensitizer stock solution, which were stored at 4 °C for subsequent use. All experiments were conducted in PBS buffer (1 ×) containing 1% DMSO. 2 µL of the photosensitizer stock solution was added to 2 mL of PBS buffer solutions at different pH values. Absorption spectra and fluorescence spectra of each photosensitizer under various pH conditions were recorded using ultraviolet-visible spectrophotometry and fluorescence spectrophotometry.

[5] = Singlet oxygen generation assay with DPBF as trapping agent; type: physicochemical; conditions: 808 nm laser irradiation, 0.2 W cm^-2; DMSO
Method: The photosensitizers LET-R (R = H, Cl, Br, I) prepared in the Embodiments 1-4 were assessed. 1,3-Diphenylisobenzofuran (DPBF) was selected as a singlet oxygen trapping agent to determine a singlet oxygen generation capability of each photosensitizer molecule.
A 1 mM DPBF stock solution was first prepared for use. An appropriate volume of freshly prepared DPBF solution was then added to DMSO to adjust the absorbance at 415 nm to approximately 1.0, followed by addition of photosensitizer solution at appropriate concentration. The ultraviolet-visible absorption spectra were measured after different irradiation times with a near-infrared laser. The singlet oxygen generation capability of each photosensitizer was evaluated by monitoring the absorbance changes of DPBF at 415 nm.

With CC1(C)C(=CC=C2CCCC(C=CC34OCCCN3c3ccc(I)cc3C4(C)C)=C2Cl)N(CCCO)c2ccc(I)cc21 (stereo not shown) [LET-I] the “EPR spectrum, singlet oxygen production” value [1] was “three isointense paramagnetic resonance peaks (1:1:1)”, the “singlet oxygen quantum yield” value [2] was “superior singlet oxygen generation capability” and the viability at 20 µM [3] was < 30%. The “fluorescence intensity in the visible light region” value [4] was “decreased with increasing pH”, the “fluorescence emission intensity in the near-infrared region” value (“fluorescence emission intensity” for short) [4] was “enhanced fluorescence emission intensity at higher pH values” and the “singlet oxygen generation capability (DPBF degradation, absorbance at 415 nm)” value [5] was “superior singlet oxygen generation efficiency”.
With CCN(CC)c1ccc2c(c1)OC1=C(C=CC34OCCCN3c3ccccc3C4(C)C)CCCC1=C2 (stereo not shown) [LET-Hcy-N] the “fluorescence emission intensity” value [4] was “enhanced fluorescence emission intensity at higher pH values”.
In the case of CC1(C)C(=CC=C2CCCC(C=CC34OCCCN3c3ccccc3C4(C)C)=C2Cl)N(CCCO)c2ccccc21 (stereo not shown) [LET-H], the “EPR spectrum, singlet oxygen production” value [1] is reported as “three isointense paramagnetic resonance peaks (1:1:1)”, the “fluorescence intensity in the visible light region” value [4] is reported as “decreased with increasing pH” and the “fluorescence emission intensity” value [4] is reported as “enhanced fluorescence emission intensity at higher pH values”.
